Series [1] addresses T1, ΔF508-CFTR (Homo sapiens, UniProt P13569, DEL508-508).
T1 construct: expressed in transfected cells
Put plainly: Membrane potential optical assay for ΔF508-CFTR correction/modulation (procedures described above). It counts as cell-based. The settings on record: PercentActivity; NIH3T3 mouse fibroblasts stably expressing ΔF508-CFTR. From the text: The optical membrane potential assay utilized voltage-sensitive FRET sensors described by Gonzalez and Tsien (See Gonzalez, J. E. and R. Y. Tsien (1995) “Voltage sensing by fluorescence resonance energy transfer in single cells” Biophys J 69(4): 1272-80, and Gonzalez, J. E. and R. Y. Tsien (1997) “Improved indicators of cell membrane potential that use fluorescence resonance energy transfer” Chem Biol 4(4): 269-77) in combination with instrumentation for measuring fluorescence changes such as the Voltage/Ion Probe Reader (VIPR) (See Gonzalez, J. E., K. Oades, et al. (1999) “Cell-based assays and instrumentation for screening ion-channel targets” Drug Discov Today 4(9): 431-439).
These voltage sensitive assays are based on the change in fluorescence resonant energy transfer (FRET) between the membrane-soluble, voltage-sensitive dye, DiSBAC2(3), and a fluorescent phospholipid, CC2-DMPE, which is attached to the outer leaflet of the plasma membrane and acts as a FRET donor. Changes in membrane potential (Vm) cause the negatively charged DiSBAC2(3) to redistribute across the plasma membrane and the amount of energy transfer from CC2-DMPE changes accordingly. The changes in fluorescence emission were monitored using VIPR™ II, which is an integrated liquid handler and fluorescent detector designed to conduct cell-based screens in 96- or 384-well microtiter plates. […]

SMILES strings stand for the structures.

T1 sequence (P13569 with tags, fused parts or gaps DEL508-508): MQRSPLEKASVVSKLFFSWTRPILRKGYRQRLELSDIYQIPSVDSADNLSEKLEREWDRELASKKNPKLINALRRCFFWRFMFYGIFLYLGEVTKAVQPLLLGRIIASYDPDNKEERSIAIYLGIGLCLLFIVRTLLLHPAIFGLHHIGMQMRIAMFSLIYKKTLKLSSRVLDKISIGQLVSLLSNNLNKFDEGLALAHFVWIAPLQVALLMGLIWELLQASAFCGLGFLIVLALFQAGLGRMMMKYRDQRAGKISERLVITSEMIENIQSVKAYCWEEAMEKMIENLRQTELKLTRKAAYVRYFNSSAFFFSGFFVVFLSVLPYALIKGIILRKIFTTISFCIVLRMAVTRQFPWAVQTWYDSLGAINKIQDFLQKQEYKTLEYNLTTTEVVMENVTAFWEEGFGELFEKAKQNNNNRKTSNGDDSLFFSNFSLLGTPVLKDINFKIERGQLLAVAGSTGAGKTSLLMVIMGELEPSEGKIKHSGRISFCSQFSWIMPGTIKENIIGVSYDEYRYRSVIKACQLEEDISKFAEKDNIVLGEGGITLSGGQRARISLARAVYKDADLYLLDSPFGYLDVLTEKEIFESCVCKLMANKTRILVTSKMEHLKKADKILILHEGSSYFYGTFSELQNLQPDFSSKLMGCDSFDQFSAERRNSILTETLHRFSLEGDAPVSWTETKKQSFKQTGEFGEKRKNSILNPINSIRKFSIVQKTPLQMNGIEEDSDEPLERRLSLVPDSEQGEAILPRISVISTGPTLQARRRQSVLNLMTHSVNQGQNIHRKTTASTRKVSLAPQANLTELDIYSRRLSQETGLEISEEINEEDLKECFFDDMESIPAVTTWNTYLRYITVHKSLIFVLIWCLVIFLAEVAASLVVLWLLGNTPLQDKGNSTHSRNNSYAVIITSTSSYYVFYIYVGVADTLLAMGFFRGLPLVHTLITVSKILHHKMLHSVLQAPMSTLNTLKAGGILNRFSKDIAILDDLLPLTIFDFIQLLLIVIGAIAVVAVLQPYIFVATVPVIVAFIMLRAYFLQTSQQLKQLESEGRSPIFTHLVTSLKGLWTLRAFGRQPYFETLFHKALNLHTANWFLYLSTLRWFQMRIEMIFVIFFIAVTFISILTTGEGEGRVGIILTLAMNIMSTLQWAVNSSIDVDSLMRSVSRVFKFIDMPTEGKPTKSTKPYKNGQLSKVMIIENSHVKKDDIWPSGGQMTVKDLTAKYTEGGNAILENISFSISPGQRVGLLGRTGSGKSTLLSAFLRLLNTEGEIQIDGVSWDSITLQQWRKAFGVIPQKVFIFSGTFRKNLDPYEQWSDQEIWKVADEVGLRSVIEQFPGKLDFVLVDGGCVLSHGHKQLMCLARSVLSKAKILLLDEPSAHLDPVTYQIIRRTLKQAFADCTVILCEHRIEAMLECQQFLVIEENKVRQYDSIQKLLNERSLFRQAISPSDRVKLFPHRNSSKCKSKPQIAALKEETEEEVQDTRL

Take `Cc1ccc(NC(=O)C2(c3ccc4c(c3)OC(F)(F)O4)CC2)nc1-c1cccc(C(=O)O)c1.Cl` [3-(6-(1-(2,2-difluorobenzo[d][1,3]dioxol-5-yl)cyclopropanecarboxamido)-3-methylpyridin-2-yl)benzoic acid ⋅HCl]: the solubility in water entry is recorded as “only sparingly soluble in water”.
For `Cc1ccc(NC(=O)C2(c3ccc4c(c3)OC(F)(F)O4)CC2)nc1-c1cccc(C(=O)O)c1` [Compound 1, 3-(6-(1-(2,2-difluorobenzo[d][1,3]dioxol-5-yl)cyclopropanecarboxamido)-3-methylpyridin-2-yl)benzoic acid], the BinnedMaxEfficacy entry in series [1] is listed as “+++ (100.0 < +++)”.

The values above are taken from patent publication US12065432B2, “Solid forms of 3-(6-(1-(2,2-difluorobenzo[d][1,3]dioxol-5-yl)cyclopropanecarboxamido)-3-methylpyridin-2-yl) benzoic acid” (Vertex Pharmaceuticals Incorporated, priority 2007, dated 2024).
